# Measured values reported in US20090215853A1, “Flavopereirine and alstonine combinations in the treatment and prevention of prostate cancer” (Natural Source International, priority 2004, published 2009).
# How the values were obtained:
# [1] = tested on: LNCaP cells; test: Induction of apoptosis in LNCaP cells (PARP cleavage, Caspase-3 activity); format: cell-based, human; conditions: 24 hours (FIG. 2)
# [2] = tested on: normal DNA; conditions: Oncotest; cited from earlier work
Compound,apoptosis as determined by cleavage of PARP and induction of Caspase-3 [1],effect on normal DNA [2]
CCc1ccc2c3[nH]c4ccccc4c3cc[n+]2c1 [flavopereirine],induction of apoptosis,no effect on normal DNA
COC(=O)C1=CO[C@@H](C)[C@@H]2Cn3ccc4c5ccccc5nc-4c3C[C@H]12 [alstonine],relatively minor effect,no effect on normal DNA
